Experiment [1] has as its target T1, PaLhpI (aconitase X, AcnX Type I; cis-3-hydroxy-L-proline dehydratase) (Pseudomonas aeruginosa, UniProt Q9I485). Nature of the experiment: substrate turnover by purified enzyme (HPLC), coupled with reductase. The format is biochemical. More on the design: gene lhpI; N-terminal (His)6-tagged recombinant protein.
Experiment [2] has as its target T2, TrLhpI (AcnX Type I) (Trichoderma reesei, UniProt G0REW7).
T2 construct: gene lhpI; N-terminal (His)6-tagged recombinant protein
T2 sequence (G0REW7 1-596): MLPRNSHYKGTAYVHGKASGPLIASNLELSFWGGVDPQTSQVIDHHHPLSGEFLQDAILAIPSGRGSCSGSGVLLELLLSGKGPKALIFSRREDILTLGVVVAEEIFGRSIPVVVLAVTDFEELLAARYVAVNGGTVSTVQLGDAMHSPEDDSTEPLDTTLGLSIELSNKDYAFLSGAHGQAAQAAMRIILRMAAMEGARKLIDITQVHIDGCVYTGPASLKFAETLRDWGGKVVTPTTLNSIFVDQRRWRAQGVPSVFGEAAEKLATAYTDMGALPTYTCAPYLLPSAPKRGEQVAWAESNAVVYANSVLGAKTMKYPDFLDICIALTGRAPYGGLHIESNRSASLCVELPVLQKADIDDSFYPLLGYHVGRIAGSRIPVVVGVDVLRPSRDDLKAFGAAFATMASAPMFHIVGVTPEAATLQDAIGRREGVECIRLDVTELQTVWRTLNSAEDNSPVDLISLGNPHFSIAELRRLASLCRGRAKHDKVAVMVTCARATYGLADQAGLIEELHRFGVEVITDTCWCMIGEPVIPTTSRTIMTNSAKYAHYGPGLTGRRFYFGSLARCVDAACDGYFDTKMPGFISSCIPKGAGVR
Nature of the experiment: substrate turnover by purified enzyme (amino acid analyzer, Lineweaver-Burk kinetics). The format is biochemical.

The target in experiment [3] is T1, PaLhpI (aconitase X, AcnX Type I; cis-3-hydroxy-L-proline dehydratase). In words: substrate turnover by purified enzyme (HPLC/amino acid analyzer, 1H NMR, coupled assay). The class given is biochemical. Set-up: gene lhpI; N-terminal (His)6-tagged recombinant protein.
The target in experiment [4] is T3, AtLhpI (AcnX Type I) (Agrobacterium fabrum, UniProt A9CH00).
T3 construct: gene lhpI; N-terminal (His)6-tagged recombinant protein
T3 sequence (A9CH00 1-569): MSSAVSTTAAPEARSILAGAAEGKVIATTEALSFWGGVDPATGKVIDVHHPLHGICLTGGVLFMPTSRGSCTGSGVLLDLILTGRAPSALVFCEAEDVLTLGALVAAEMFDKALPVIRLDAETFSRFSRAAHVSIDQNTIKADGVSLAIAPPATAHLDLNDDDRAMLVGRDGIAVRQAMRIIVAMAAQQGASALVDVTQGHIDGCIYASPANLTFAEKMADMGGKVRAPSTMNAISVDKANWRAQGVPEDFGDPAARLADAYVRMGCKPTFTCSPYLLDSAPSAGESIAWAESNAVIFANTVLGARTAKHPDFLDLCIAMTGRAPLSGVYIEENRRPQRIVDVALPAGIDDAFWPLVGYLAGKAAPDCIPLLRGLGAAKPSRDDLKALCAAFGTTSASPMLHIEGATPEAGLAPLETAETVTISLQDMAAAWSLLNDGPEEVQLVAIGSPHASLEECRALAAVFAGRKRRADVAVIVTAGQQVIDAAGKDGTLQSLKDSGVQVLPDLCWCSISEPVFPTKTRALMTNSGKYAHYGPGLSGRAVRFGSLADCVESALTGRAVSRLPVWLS
In words: substrate turnover by purified enzyme, Lineweaver-Burk kinetics. The class given is biochemical.

In experiment [5] the target is T1, PaLhpI (aconitase X, AcnX Type I; cis-3-hydroxy-L-proline dehydratase). Set-up: gene lhpI.
Experiment [6] has as its target T4, PaLhpL (Pseudomonas aeruginosa, UniProt Q9I489).
T4 construct: gene lhpL
T4 sequence (Q9I489 1-344): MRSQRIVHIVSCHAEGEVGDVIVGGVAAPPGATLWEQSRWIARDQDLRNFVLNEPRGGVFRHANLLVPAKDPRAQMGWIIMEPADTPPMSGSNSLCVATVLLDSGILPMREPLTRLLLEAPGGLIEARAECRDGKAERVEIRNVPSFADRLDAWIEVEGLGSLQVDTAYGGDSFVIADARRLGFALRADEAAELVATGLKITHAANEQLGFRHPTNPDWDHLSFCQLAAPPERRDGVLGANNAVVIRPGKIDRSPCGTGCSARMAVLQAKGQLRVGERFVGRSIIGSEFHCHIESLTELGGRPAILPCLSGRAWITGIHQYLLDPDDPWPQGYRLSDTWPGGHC
In words: bifunctional dehydratase and 2-epimerase activity (details in supplement, Fig. S6). The class given is biochemical.

Experimental findings from paper PMC5144071, “Functional characterization of aconitase X as a cis-3-hydroxy-L-proline dehydratase” (Scientific Reports, 2016) are described below.

T1 sequence (Q9I485 whole entry): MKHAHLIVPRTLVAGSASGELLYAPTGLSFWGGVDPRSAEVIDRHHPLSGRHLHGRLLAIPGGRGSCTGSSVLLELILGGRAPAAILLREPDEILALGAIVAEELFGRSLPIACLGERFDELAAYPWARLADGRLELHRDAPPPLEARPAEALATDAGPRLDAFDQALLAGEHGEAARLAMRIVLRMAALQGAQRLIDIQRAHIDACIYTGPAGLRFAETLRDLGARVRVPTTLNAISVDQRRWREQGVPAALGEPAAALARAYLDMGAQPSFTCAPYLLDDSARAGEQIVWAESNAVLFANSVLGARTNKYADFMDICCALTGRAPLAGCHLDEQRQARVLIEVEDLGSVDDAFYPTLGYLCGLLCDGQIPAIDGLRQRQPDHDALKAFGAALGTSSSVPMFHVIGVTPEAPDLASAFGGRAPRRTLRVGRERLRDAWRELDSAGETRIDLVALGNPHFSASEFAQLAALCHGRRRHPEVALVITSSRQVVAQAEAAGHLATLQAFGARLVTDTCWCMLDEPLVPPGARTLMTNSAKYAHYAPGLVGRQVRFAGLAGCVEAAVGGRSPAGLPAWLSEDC

In the case of `O=C(O)[C@H]1NC[C@@H](O)[C@H]1O` [2,3-cis-3,4-cis-3,4-dihydroxy-L-proline], in experiment [1], the “substrate turnover by purified enzyme (HPLC), coupled with reductase” value came to 0.130 µmol/min/mg. Consider `O=C(O)[C@H]1NCC[C@H]1O` [cis-3-hydroxy-L-proline], for which, in experiment [2], the “substrate turnover by purified enzyme (amino acid analyzer, Lineweaver-Burk kine)” value is 3.75 µmol/min/mg. Further, in experiment [3], the “substrate turnover by purified enzyme (HPLC/amino acid analyzer, 1H NMR, coupled)” value came to 39.5 µmol/min/mg. Besides, in experiment [4], the “substrate turnover by purified enzyme, Lineweaver-Burk kinetics” value is listed as “among eight proline derivatives (Fig. S1), only cis-3-hydroxy-L-proline was consumed in a time-dependent manner by both proteins”. `O=C(O)c1ccc[nH]1` [pyrrole-2-carboxylate]: the IC50 in experiment [5] was ~ 440-fold that of Cd^2+ (2.05 × 10^−3 mM). As for `O=C(O)[C@H]1NCC[C@@H]1O` [trans-3-hydroxy-L-proline], in experiment [6], the “bifunctional dehydratase and 2-epimerase activity (details in supplement, Fig. S)” value was “PaLhpL gene (PA1255; Fig. 1d) in the L-hydroxyproline gene cluster encodes a bifunctional dehydratase and 2-epimerase toward trans-3-hydroxy-L-proline”.
